Measurements published in patent US11485736B2 (KSQ Therapeutics, Inc., priority 2018, dated 2022).
Where two headings read alike, the source gives them in different places.

Key:
[1] = Liver microsomal stability, rat liver microsomes; assay type: in vitro ADME; details: 1 μM compound, NADPH, read-out: t1/2 (min) in RLM
Description: (§1) Certain Compounds of the Disclosure were assessed for ADME metabolic stability in human liver microsomes (HLM) and rat liver microsomes (RLM).
(§2) Samples were prepared by adding 222.5 μL of a master solution (100 mM phosphate buffer and 1 mg/mL liver microsomes (HLM or RLM)) and 25 μL of a 10 mM NADPH solution to incubation plates, which were then warmed for 10 min. Each compound was separately dissolved in DMSO to prepare 10 mM stock solutions, which were then diluted to 100 μM with acetonitrile. A reaction was started by adding 2.5 μL of the 100 μM solution of each compound to separate incubation plates such that the final concentration of for each compound in each plate was 1 μM.
(§3) 25 μL aliquots of each sample were taken at 0.5, 5, 10, 15, 20 and 30 minutes, and the reaction was stopped by adding 5 volumes of cold acetonitrile with IS (100 nM alprazolam, 200 nM caffeine and 100 nM tolbutamide). The samples were then centrifuged at 3,220 G for 30 minutes, and 100 μL of the supernatant fluid was mixed with 100 μL of ultra-pure H2O.
(§4) The samples were then analyzed by LC-MS/MS. Peak areas were determined from extracted ion chromatograms. Slope values (k) were determined by linear regression of the natural logarithm of the remaining percentage of the compound vs. incubation time curve. […] The in vitro half-life (min) was converted into the in vitro intrinsic clearance (in vitro CLint, in μL/min/mg protein) using the following equation: […]

[2] = ADME solubility determination at pH 2.0 and pH 7.4; assay type: physicochemical; details: aqueous buffer, thermodynamic from solid, LC-MS/MS
Description: Certain Compounds of the Disclosure were assessed for ADME solubility at pH 2.0 and pH 7.4.
Stock solutions were prepared by adding each compound to DMSO at a concentration of 10 mM. Samples were prepared by adding 50 μL of each stock solution to separate vials. The vials were loaded onto a 96-well rack and dried. 500 μL of Phosphate Buffered Saline (PBS) pH 7.4 or PBS pH 2.0 were added into each vial. The vials were then shaken at 25° C. and 1,100 rpm for 24 hours.
After 24 hours, the vials were centrifuged at 3220 G and 25° C. for 30 minutes. The supernatant fluid was analyzed by LC-MS/MS against a standard of known concentration. The solubility of each sample was then calculated using the equation below:
[formula] where DF is the dilution factor.

[3] = Liver microsomal stability, human liver microsomes; assay type: in vitro ADME; details: 1 μM compound, NADPH, read-out: t1/2 (min) in HLM
Description: as §1, §2, §3, §4

[4] = PBS pH 2.0, shaken at 25° C. for 24 hours, read-out: Solubility at pH 2.0
[5] = PBS pH 7.4, shaken at 25° C. for 24 hours, read-out: Solubility at pH 7.4

SMILES: CCOc1nn(Cc2ccc(-c3nc(C(F)(F)F)cn3CC)cc2)c2nc(-c3c(OC)ncnc3C3CC3)ncc12 [Example 182]
- half-life at 1 μM [1]: > 25 min
- solubility at 24 h [2, 4]: < 10 µM
- solubility at 24 h [2, 5]: < 10 µM
- half-life at 1 μM [3]: > 25 min

SMILES: CCn1c(-c2ccc(Cn3ncc4cnc(-c5c(OC)ncnc5C5CC5)nc43)cc2)nc(C(F)(F)F)c1C [Example 167, 6-(4-cyclopropyl-6-methoxypyrimidin-5-yl)-1-(4-(1-ethyl-5-methyl-4-(trifluoromethyl)-1H-imidazol-2-yl)benzyl)-1H-pyrazolo[3,4-d]pyrimidine]
- half-life at 1 μM [1]: < 25 min
- solubility at 24 h [2, 4]: > 10 µM
- solubility at 24 h [2, 5]: < 10 µM
- half-life at 1 μM [3]: < 25 min

SMILES: CCn1cc(C(F)(F)F)nc1-c1ccc(Cn2nc(C#N)c3cnc(-c4c(OC)ncnc4C4CC4)nc32)cc1 [Example 172, 6-(4-cyclopropyl-6-methoxypyrimidin-5-yl)-1-(4-(1-ethyl-4-(trifluoromethyl)-1H-imidazol-2-yl)benzyl)-1H-pyrazolo[3,4-d]pyrimidine-3-carbonitrile]
- half-life at 1 μM [1]: < 25 min
- solubility at 24 h [2, 4]: < 10 µM
- solubility at 24 h [2, 5]: < 10 µM
- half-life at 1 μM [3]: > 25 min

SMILES: COc1ncnc(C2CCC2)c1-c1ncc2cnn(Cc3ccc(-c4nc(C(F)(F)F)cn4C(C)C)cc3)c2n1 [Example 16]
- half-life at 1 μM [1]: < 25 min
- solubility at 24 h [2, 4]: > 10 µM
- solubility at 24 h [2, 5]: < 10 µM
- half-life at 1 μM [3]: < 25 min

SMILES: CCn1cc(C(F)(F)F)nc1-c1ccc(Cn2ncc3cnc(-c4c(OC)ncnc4OC4CC4)nc32)cc1 [Example 114]
- half-life at 1 μM [1]: < 25 min
- solubility at 24 h [2, 4]: > 10 µM
- solubility at 24 h [2, 5]: > 10 µM
- half-life at 1 μM [3]: < 25 min

SMILES: COc1ncnc(C2CC2)c1-c1ncc2cnn(Cc3ccc(-c4cn(C)c(C(F)(F)F)n4)cc3)c2n1 [Example 13]
- half-life at 1 μM [1]: > 25 min
- solubility at 24 h [2, 4]: < 10 µM
- solubility at 24 h [2, 5]: < 10 µM
- half-life at 1 μM [3]: > 25 min

SMILES: COCCOc1ncnc(C2CC2)c1-c1ncc2cnn(Cc3ccc(-c4nc(C(F)(F)F)cn4C)cc3)c2n1 [Example 42]
- half-life at 1 μM [1]: < 25 min
- solubility at 24 h [2, 4]: > 10 µM
- solubility at 24 h [2, 5]: > 10 µM
- half-life at 1 μM [3]: < 25 min

SMILES: COc1ncnc(C)c1-c1ncc2cnn(Cc3ccc(-c4nc(C(F)(F)F)cn4C)cc3)c2n1 [Example 33]
- half-life at 1 μM [1]: > 25 min
- solubility at 24 h [2, 4]: > 10 µM
- solubility at 24 h [2, 5]: > 10 µM
- half-life at 1 μM [3]: > 25 min

SMILES: CCn1cc(C(F)(F)F)nc1-c1ccc(Cn2nc(OC)c3cnc(-c4c(OC)ncnc4C4CC4)nc32)cc1 [Example 176]
- half-life at 1 μM [1]: > 25 min
- solubility at 24 h [2, 4]: > 10 µM
- solubility at 24 h [2, 5]: < 10 µM
- half-life at 1 μM [3]: > 25 min

SMILES: COc1ncnc(C2CC2)c1-c1ncc2cnn(Cc3ccc(-c4nc(C(F)(F)F)c(OC)n4C(C)C)cc3)c2n1 [Example 166]
- half-life at 1 μM [1]: < 25 min
- solubility at 24 h [2, 4]: < 10 µM
- solubility at 24 h [2, 5]: < 10 µM
- half-life at 1 μM [3]: < 25 min

SMILES: CCn1cc(C(F)(F)F)nc1-c1ccc([C@@H](C)n2ncc3cnc(-c4c(OC)ncnc4OC)nc32)cc1 [Example 89]
- half-life at 1 μM [1]: > 25 min
- solubility at 24 h [2, 4]: > 10 µM
- solubility at 24 h [2, 5]: > 10 µM
- half-life at 1 μM [3]: > 25 min

SMILES: COc1ncnc(C2CC2)c1-c1ncc2cnn(Cc3ccc(-n4nc(C(F)(F)F)cc4C#N)cc3)c2n1 [Example 71]
- half-life at 1 μM [1]: > 25 min
- solubility at 24 h [2, 4]: < 10 µM
- solubility at 24 h [2, 5]: < 10 µM
- half-life at 1 μM [3]: > 25 min

SMILES: CCn1cc(C(F)(F)F)nc1-c1ccc(Cn2nc(OC)c3cnc(-c4c(OC)ncnc4C4CC4)nc32)cc1F [Example 175, 6-(4-cyclopropyl-6-methoxypyrimidin-5-yl)-1-(4-(1-ethyl-4-(trifluoromethyl)-1H-imidazol-2-yl)-3-fluorobenzyl)-3-methoxy-1H-pyrazolo[3,4-d]pyrimidine]
- half-life at 1 μM [1]: > 25 min
- solubility at 24 h [2, 4]: < 10 µM
- solubility at 24 h [2, 5]: < 10 µM
- half-life at 1 μM [3]: > 25 min

SMILES: COc1ncnc(C2CC2)c1-c1ncc2cnn(Cc3ccc(-c4nc(C(F)(F)F)cn4C)cc3)c2n1 [Example 12, 6-(4-cyclopropyl-6-methoxypyrimidin-5-yl)-1-(4-(1-methyl-4-(trifluoromethyl)-1H-imidazol-2-yl)benzyl)-1H-pyrazolo[3,4-d]pyrimidine]
- half-life at 1 μM [1]: > 25 min
- solubility at 24 h [2, 4]: > 10 µM
- solubility at 24 h [2, 5]: > 10 µM
- half-life at 1 μM [3]: < 25 min

SMILES: COc1ncnc(C2CC2)c1-c1ncc2cnn(Cc3ccc(-c4cn(C(C)C)c(C(F)(F)F)n4)cc3)c2n1 [Example 34]
- half-life at 1 μM [1]: > 25 min
- solubility at 24 h [2, 4]: < 10 µM
- solubility at 24 h [2, 5]: < 10 µM
- half-life at 1 μM [3]: > 25 min

SMILES: COc1ncnc(C2CC2)c1-c1ncc2cnn(Cc3ccc(-c4nc(C(F)(F)F)cn4C(C)CF)cc3)c2n1 (stereo not shown) [Example 151, 6-(4-cyclopropyl-6-methoxypyrimidin-5-yl)-1-(4-(1-(1-fluoropropan-2-yl)-4-(trifluoromethyl)-1H-imidazol-2-yl)benzyl)-1H-pyrazolo[3,4-d]pyrimidine]
- half-life at 1 μM [1]: > 25 min
- solubility at 24 h [2, 4]: > 10 µM
- solubility at 24 h [2, 5]: > 10 µM
- half-life at 1 μM [3]: > 25 min

SMILES: CCn1cc(C(F)(F)F)nc1-c1ccc(Cn2ncc3cnc(-c4c(OC)ncnc4C4CC4)nc32)cc1F [Example 18]
- half-life at 1 μM [1]: > 25 min
- solubility at 24 h [2, 4]: < 10 µM
- solubility at 24 h [2, 5]: < 10 µM
- half-life at 1 μM [3]: > 25 min

SMILES: CCn1cc(C(F)(F)F)nc1-c1ccc(Cn2nc(N3CCC3)c3cnc(-c4c(OC)ncnc4C4CC4)nc32)cc1 [Example 186, 3-(azetidin-1-yl)-6-(4-cyclopropyl-6-methoxypyrimidin-5-yl)-1-(4-(1-ethyl-4-(trifluoromethyl)-1H-imidazol-2-yl)benzyl)-1H-pyrazolo[3,4-d]pyrimidine]
- half-life at 1 μM [1]: < 25 min
- solubility at 24 h [2, 4]: > 10 µM
- solubility at 24 h [2, 5]: > 10 µM
- half-life at 1 μM [3]: < 25 min

SMILES: COc1ncnc(C2CC2)c1-c1ncc2cnn(Cc3ccc(-c4nc(C(F)(F)F)c(Br)n4C(C)C)cc3)c2n1 [Example 162]
- half-life at 1 μM [1]: > 25 min
- solubility at 24 h [2, 4]: < 10 µM
- solubility at 24 h [2, 5]: < 10 µM
- half-life at 1 μM [3]: > 25 min

SMILES: CCn1cc(C(F)(F)F)nc1-c1ccc([C@H](C)n2ncc3cnc(-c4c(OC)ncnc4C(C)C)nc32)cc1 [Example 117]
- half-life at 1 μM [1]: < 25 min
- solubility at 24 h [2, 4]: > 10 µM
- solubility at 24 h [2, 5]: > 10 µM
- half-life at 1 μM [3]: < 25 min

SMILES: CCn1cc(C(F)(F)F)nc1-c1ccc(Cn2nc(Br)c3cnc(-c4c(OC)ncnc4C4CC4)nc32)cc1 [Example 170, 3-bromo-6-(4-cyclopropyl-6-methoxypyrimidin-5-yl)-1-(4-(1-ethyl-4-(trifluoromethyl)-1H-imidazol-2-yl)benzyl)-1H-pyrazolo[3,4-d]pyrimidine]
- half-life at 1 μM [1]: < 25 min
- solubility at 24 h [2, 4]: < 10 µM
- solubility at 24 h [2, 5]: < 10 µM
- half-life at 1 μM [3]: > 25 min

SMILES: CCn1cc(C(F)(F)F)nc1-c1ccc([C@H](C)n2ncc3cnc(-c4c(OC)ncnc4C(C)C)nc32)cc1F [Example 118]
- half-life at 1 μM [1]: < 25 min
- solubility at 24 h [2, 4]: < 10 µM
- solubility at 24 h [2, 5]: < 10 µM
- half-life at 1 μM [3]: > 25 min

SMILES: COc1ncnc(C2CC2)c1-c1ncc2nc(C(C)C)n(Cc3ccc(-n4nc(C(F)(F)F)cc4C)cc3)c2n1 [Example 212]
- half-life at 1 μM [1]: > 25 min
- solubility at 24 h [2, 4]: < 10 µM
- solubility at 24 h [2, 5]: < 10 µM
- half-life at 1 μM [3]: > 25 min

SMILES: COc1ncnc(C2CC2)c1-c1ncc2cnn([C@@H]3CCc4cc(-c5nc(C(F)(F)F)cn5C(C)C)ccc43)c2n1 [Example 174]
- half-life at 1 μM [1]: > 25 min
- solubility at 24 h [2, 4]: < 10 µM
- solubility at 24 h [2, 5]: < 10 µM
- half-life at 1 μM [3]: > 25 min

SMILES: CCn1cc(C(F)(F)F)nc1-c1ccc(Cn2ncc3cnc(-c4c(OCCF)ncnc4C4CC4)nc32)cc1 [Example 54]
- half-life at 1 μM [1]: < 25 min
- solubility at 24 h [2, 4]: < 10 µM
- solubility at 24 h [2, 5]: < 10 µM
- half-life at 1 μM [3]: < 25 min

SMILES: CCn1cc(C(F)(F)F)nc1-c1ccc(Cn2ncc3c(C)nc(-c4c(OC)ncnc4C4CC4)nc32)cc1 [Example 53]
- half-life at 1 μM [1]: > 25 min
- solubility at 24 h [2, 4]: < 10 µM
- solubility at 24 h [2, 5]: < 10 µM
- half-life at 1 μM [3]: > 25 min

SMILES: CCn1cc(C(F)(F)F)nc1-c1ccc(Cn2ncc3cnc(-c4c(OC)ncnc4C4CC4)nc32)cc1OC [Example 128]
- half-life at 1 μM [1]: < 25 min
- solubility at 24 h [2, 4]: > 10 µM
- solubility at 24 h [2, 5]: > 10 µM
- half-life at 1 μM [3]: > 25 min

SMILES: CCn1cc(C(F)(F)F)nc1-c1ccc(Cn2ncc3cnc(-c4c(OC(F)F)ncnc4C4CC4)nc32)cc1 [Example 61]
- half-life at 1 μM [1]: < 25 min
- solubility at 24 h [2, 4]: < 10 µM
- solubility at 24 h [2, 5]: < 10 µM
- half-life at 1 μM [3]: > 25 min
